# From patent US20100022574A1, “Methods to Treat Pain Using an Alpha-2 Adrenergic Agonist and an Endothelin Antagonist” (EndogenX, Inc., priority 2008, published 2010)
# Entries after “also recorded” stand apart in the source; their conditions may differ. Like-named read-outs stand apart in the source and are kept apart here.
# How the values were obtained:
# [1] = system: rats; details: for effect on morphine analgesia in rats treated with BMS182874: morphine 4 mg/kg sc
# [2] = target: α2-adrenergic receptors; details: cited from earlier work
# [3] = target: I1-imidazoline receptors; details: cited from earlier work
# [4] = system: patients after spinal fusion; details: cited from earlier work
# [5] = system: goats; details: epidural; cited from earlier work
# [6] = system: healthy volunteers; details: clonidine 0.2 mg p.o., alone or with naloxone; cited from earlier work
# [7] = Body temperature in mice; details: clonidine 0.3, 1.0, 3.0 mg/kg i.p., all doses
# [8] = system: Male Swiss Webster mice; assay: Tail-flick latency (antinociception) in mice; details: for tail flick latency, fold above vehicle: clonidine 0.3 mg/ml
# [9] = target: T1, ETA receptors (Homo sapiens, UniProt P25101); details: membrane preparations; read-out: IC50, inhibition of binding of ET-1 to ETA receptors; cited from earlier work
# T1 sequence (P25101 21-427): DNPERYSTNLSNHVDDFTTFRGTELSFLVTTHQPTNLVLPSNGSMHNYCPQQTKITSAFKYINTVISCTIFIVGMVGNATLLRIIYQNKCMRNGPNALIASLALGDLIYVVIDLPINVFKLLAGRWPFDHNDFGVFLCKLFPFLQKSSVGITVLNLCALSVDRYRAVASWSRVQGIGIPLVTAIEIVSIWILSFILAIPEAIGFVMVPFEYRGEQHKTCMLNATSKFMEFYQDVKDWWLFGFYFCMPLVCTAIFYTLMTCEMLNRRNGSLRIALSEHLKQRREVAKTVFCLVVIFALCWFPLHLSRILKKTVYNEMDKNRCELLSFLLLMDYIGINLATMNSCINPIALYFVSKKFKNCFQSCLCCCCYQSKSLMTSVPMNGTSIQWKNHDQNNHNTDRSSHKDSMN
# [10] = target: T2, ETB receptors (Homo sapiens, UniProt P24530); details: membrane preparations; read-out: IC50, inhibition of binding of ET-1 to ETB receptors; cited from earlier work
# T2 sequence (P24530 27-442): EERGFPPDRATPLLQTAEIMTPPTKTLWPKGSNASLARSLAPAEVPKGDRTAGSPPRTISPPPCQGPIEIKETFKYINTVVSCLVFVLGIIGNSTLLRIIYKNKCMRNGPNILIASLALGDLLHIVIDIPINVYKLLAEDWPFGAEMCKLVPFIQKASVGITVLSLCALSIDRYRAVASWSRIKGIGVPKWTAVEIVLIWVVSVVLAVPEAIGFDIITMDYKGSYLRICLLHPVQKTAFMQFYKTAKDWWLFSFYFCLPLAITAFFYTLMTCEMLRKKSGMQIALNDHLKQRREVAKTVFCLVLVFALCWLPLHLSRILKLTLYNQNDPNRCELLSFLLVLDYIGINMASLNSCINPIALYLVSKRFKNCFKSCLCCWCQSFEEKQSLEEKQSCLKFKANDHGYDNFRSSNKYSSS
# [11] = cited from earlier work
# [12] = cited from earlier work; remark: listed apart in the source
compound,measurement,setting,value
"Clc1cccc(Cl)c1NC1=NCCN1 [Clonidine, N-(2,6-dichlorophenyl)-4,5-dihydro-1H-imidazol-2-amine]",effect on morphine analgesia in rats treated with BMS182874,"[1]; clonidine 0.1 mg/kg ip, BMS182874 50 μg icv",did not produce an increase in analgesic effect
same,effect on oxycodone analgesia in rats treated with BMS182874,"[1]; clonidine 0.1 mg/kg ip, BMS182874 50 μg icv, oxycodone 4 mg/kg sc",did not produce an increase in analgesic effect
same,effect on morphine analgesia in rats treated with BMS182874,"[1]; clonidine 0.3 mg/kg ip, BMS182874 50 μg icv","significant (P=0.016 and P=0.011, respectively) increase"
same,effect on oxycodone analgesia in rats treated with BMS182874,"[1]; clonidine 0.3 mg/kg ip, BMS182874 50 μg icv, oxycodone 4 mg/kg sc","significant (P=0.02 and P=0.031, respectively) increase"
same,effect on morphine analgesia in rats treated with BMS182874,"[1]; clonidine 1.0 mg/kg ip, BMS182874 50 μg icv","significant (P=0.016 and P=0.011, respectively) increase"
same,effect on oxycodone analgesia in rats treated with BMS182874,"[1]; clonidine 1.0 mg/kg ip, BMS182874 50 μg icv, oxycodone 4 mg/kg sc","significant (P=0.02 and P=0.031, respectively) increase"
same,analgesic effect of the agent alone (tail flick latency),"[1]; rats, BMS182874 50 μg icv, clonidine 1 mg/kg ip",produced significant (P=0.00086) analgesia
same,effect on Morphine analgesia,"[1]; rats, clonidine 1 mg/kg ip or BMS182874 50 μg icv, morphine 8 mg/kg sc",significantly potentiated; also recorded: Increase
same,effect on Oxycodone analgesia,"[1]; rats, clonidine 1 mg/kg ip or BMS182874 50 μg icv, oxycodone 4 mg/kg sc",potentiated; also recorded: Increase
same,AUC0→360 of tail flick latency,"[1]; rats, each agent alone: morphine 8 mg/kg sc, clonidine 1 mg/kg ip, BMS182874 50 μg icv, oxycodone 4 mg/kg sc, Mean±S.E.M., n=6",16.62±1.61 sec.min
same,Ki,[2],3.8 nM
same,Ki,[3],1 nM
same,pain score (visual analog scale) after clonidine,"[4]; clonidine 5 micrograms/kg i.v. in 1st h then 0.3 microgram/kg/h for 11 h, mean±standard error",26±3 mm
same,change in mean arterial pressure,[4]; clonidine group at T11,−26±2%
same,pain score (visual analog scale) before clonidine,"[4]; clonidine group, starting value, mean±standard error",42±5 mm
same,mean arterial pressure,[4]; clonidine group,74±2 mmHg
same,"morphine requirement, dose for each patient","[4]; clonidine group, i.m. morphine on demand",3.8 ± 1 mg
same,duration of antinociception,[5],5.5 h
same,duration of increased subjective and objective pain thresholds,[6],at least 4 hours
same,effect on body temperature,[7],decreased body temperature
same,AUC0→240 min from tail flick latency,"[8]; Example 3, mice, morphine 4 mg/kg s.c., clonidine 2 mg/kg i.p. 30 min before morphine or vehicle, mean±SEM, N=6",68.4±12.3
same,AUC of tail flick latency compared to control mice,"[8]; Example 5 study 2, clonidine 2 mg/kg i.p. alone, sulfisoxazole 1000 mg/kg oral alone",produced an increase in AUC
same,increase in tail flick latency,"[8]; clonidine 0.3 mg/kg plus CMC, 2 hours post injury",5 fold
same,tail flick latency at late time,"[8]; clonidine 0.3 mg/kg plus CMC, by 6 hours",decreased to approximately the level of vehicle treated animals
same,"tail flick latency, fold above vehicle",[8]; at 3 hours,approximately 3 fold
same,"tail flick latency, fold above vehicle",[8]; by 5 hours,2.5 fold
same,"tail flick latency, fold above vehicle",[8]; immediately after injury,up to 4 fold
same,"tail flick latency, fold over vehicle","[8]; clonidine 1.0 mg/kg i.p., at approximately 6 hours",3 fold
same,"tail flick latency, fold over vehicle","[8]; clonidine 1.0 mg/kg i.p., up to approximately 3 hours",approximately 5 fold
same,enhancement of the antinociception produced by morphine,"[8]; clonidine 2 mg/kg i.p. + morphine 4 mg/kg s.c., AUC",42%
same,"tail flick latency, fold over vehicle","[8]; clonidine 3.0 mg/kg i.p., all time points measured",approximately 5 fold
"4-amino-N-(3,4-dimethyloxazol-5-yl)-benzenesulfonamide [Sulfisoxazole]",IC50,[9],600 nM
same,IC50,[10],22000 nM
same,solubility,[11],highly soluble
same,"average steady state plasma concentration, mean","[12]; 500 mg oral four times a day, healthy volunteers",63.4 µg/mL
same,drug excreted in urine by kidney,[12]; in 24 hours,95%
same,binding to plasma proteins,[12]; in vivo,extensively bound to plasma proteins
same,maximum blood level (adverse reactions more frequent above),[12]; in vivo,≤ 200 µg/mL
same,potentiation of antinociception produced by morphine,"[8]; sulfisoxazole 500 mg/kg oral + morphine 4 mg/kg s.c., AUC",14%
